In BindingDB's records for doi:10.1016/j.bmc.2011.05.064 (Glaxosmithkline, 2011):

Biological target: Beta-1 adrenergic receptor (Homo sapiens, UniProt P08588)
Experiment: Agonist activity at human adrenergic beta1 receptor expressed in CHO cells assessed as cAMP accumulation

Sequence of Beta-1 adrenergic receptor (P08588 whole entry): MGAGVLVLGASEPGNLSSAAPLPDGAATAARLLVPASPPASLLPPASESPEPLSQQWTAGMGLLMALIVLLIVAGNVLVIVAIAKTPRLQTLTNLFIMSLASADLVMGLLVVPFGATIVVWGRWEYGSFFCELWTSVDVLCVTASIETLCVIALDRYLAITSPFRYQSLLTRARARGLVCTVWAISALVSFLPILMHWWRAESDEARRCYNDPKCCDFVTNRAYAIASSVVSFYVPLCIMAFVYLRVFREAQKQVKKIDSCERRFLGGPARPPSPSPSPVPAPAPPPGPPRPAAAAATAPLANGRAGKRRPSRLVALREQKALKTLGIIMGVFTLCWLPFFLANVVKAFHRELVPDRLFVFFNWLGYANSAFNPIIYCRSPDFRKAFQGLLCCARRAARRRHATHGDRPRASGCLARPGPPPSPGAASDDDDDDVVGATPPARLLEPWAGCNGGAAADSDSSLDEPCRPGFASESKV

Compound: O=c1[nH]cc(O)n1-c1ccc(CCCCOCCCCCCNC[C@H](O)c2ccc(O)c(CO)c2)cc1
- EC50: 79 nM
